Data from patent US11040981B2, “Pyrrolotriazine compounds and methods of inhibiting TAM kinases” (Syros Pharmaceuticals, Inc., priority 2017, dated 2021).
Structures can show the parent of a compound that is named as a salt.

What was measured:
[1] = target: T1, FLT3 (Homo sapiens, UniProt P36888); test: TR-FRET kinase activity assay, FLT3; assay type: biochemical; conditions: ATP at Km, 60 minutes
T1 sequence (P36888 27-993): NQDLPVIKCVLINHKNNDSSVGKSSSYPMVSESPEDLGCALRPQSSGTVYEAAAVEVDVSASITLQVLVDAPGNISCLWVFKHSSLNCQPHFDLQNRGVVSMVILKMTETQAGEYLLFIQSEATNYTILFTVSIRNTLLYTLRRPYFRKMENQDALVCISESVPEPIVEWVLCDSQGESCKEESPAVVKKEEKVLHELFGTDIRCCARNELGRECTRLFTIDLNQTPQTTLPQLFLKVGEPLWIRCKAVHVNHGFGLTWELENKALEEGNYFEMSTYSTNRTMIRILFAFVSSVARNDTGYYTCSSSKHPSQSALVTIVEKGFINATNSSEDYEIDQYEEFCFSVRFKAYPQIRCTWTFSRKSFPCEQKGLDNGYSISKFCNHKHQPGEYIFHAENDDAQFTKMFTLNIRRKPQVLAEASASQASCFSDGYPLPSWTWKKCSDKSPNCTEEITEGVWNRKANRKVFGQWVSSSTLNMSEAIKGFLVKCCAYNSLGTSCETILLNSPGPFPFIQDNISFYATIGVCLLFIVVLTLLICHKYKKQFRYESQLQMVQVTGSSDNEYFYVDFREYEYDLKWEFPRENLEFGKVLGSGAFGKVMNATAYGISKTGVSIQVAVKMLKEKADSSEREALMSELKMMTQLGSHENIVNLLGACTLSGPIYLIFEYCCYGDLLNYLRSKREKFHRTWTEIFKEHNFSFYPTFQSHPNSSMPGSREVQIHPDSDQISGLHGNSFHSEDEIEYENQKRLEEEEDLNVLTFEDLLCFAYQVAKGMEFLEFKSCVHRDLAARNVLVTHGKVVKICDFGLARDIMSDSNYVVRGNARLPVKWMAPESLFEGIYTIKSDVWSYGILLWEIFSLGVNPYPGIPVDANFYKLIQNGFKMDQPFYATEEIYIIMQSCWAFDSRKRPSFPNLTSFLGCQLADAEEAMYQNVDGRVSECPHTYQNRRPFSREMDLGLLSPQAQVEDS
How it was run: (§1)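 IC50 reflects the drop in TR-FRET between Eu anti-phosphotyrosine antibody and labelled peptide after a 60-minute room-temperature reaction. Buffer was 50 mM HEPES pH 7.5 with 10 mM MgCl2, 1 mM EGTA, 0.01% Brij 35 and 1 mM DTT, with ATP at Km per enzyme and EDTA quench.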

[2] = target: T2, TYRO3 (Homo sapiens, UniProt Q06418); test: TR-FRET kinase activity assay, TYRO3; assay type: biochemical; conditions: ATP at Km, 60 minutes
T2 sequence (Q06418 41-890): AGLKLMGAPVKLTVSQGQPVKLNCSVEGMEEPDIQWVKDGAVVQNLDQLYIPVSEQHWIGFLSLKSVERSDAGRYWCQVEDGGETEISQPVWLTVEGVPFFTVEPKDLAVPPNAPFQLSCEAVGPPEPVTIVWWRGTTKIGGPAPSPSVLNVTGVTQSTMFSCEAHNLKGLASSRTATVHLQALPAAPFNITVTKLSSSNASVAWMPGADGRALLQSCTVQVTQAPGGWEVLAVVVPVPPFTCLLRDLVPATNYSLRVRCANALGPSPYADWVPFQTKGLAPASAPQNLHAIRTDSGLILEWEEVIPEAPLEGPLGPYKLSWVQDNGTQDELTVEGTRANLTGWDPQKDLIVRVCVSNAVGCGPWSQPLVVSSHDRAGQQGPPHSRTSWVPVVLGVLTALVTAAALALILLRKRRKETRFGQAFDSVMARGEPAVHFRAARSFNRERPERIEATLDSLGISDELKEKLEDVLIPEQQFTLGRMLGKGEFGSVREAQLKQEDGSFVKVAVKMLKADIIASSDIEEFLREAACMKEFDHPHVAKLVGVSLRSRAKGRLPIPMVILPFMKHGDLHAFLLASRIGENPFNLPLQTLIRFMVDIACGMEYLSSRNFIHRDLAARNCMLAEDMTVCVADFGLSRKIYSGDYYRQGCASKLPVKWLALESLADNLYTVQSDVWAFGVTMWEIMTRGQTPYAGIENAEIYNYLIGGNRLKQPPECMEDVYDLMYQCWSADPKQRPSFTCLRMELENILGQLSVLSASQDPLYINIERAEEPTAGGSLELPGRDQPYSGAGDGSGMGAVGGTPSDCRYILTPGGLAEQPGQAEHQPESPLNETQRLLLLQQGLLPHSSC
How it was run: as §1

IC50 [1] [µM] | IC50 [2] [µM] | Structure (SMILES)
1 to 10 | ≤ 0.1 | CNC(=O)c1ncc(-c2cc([C@H]3CC[C@H](O)CC3)n3nc(N[C@@H](C)COC)ncc23)cn1 [Compound 334]
0.1 to 1 | ≤ 0.1 | COC[C@H](C)Nc1ncc2c(-c3ccnc(OC4CCN(C)CC4)c3)cc([C@H]3CC[C@H](O)CC3)n2n1 [Compound 342]
1 to 10 | ≤ 0.1 | CNS(=O)(=O)c1cncc(-c2cc([C@H]3CC[C@H](O)CC3)n3nc(N[C@@H](C)COC(F)F)ncc23)c1 [Compound 275]
1 to 10 | ≤ 0.1 | COCCOc1cc(-c2cc([C@H]3CC[C@H](O)CC3)n3nc(N[C@@H](C)COC)ncc23)ccn1 [Compound 345]
0.1 to 1 | ≤ 0.1 | COC[C@H](C)Nc1ncc2c(-c3cnn(Cc4cnc(C)cn4)c3)cc([C@H]3CC[C@H](O)CC3)n2n1 [Compound 306]
0.1 to 1 | ≤ 0.1 | COC[C@H](C)Nc1ncc2c(-c3ccnc(NC(C)C)c3)cc([C@H]3CC[C@H](O)CC3)n2n1 [Compound 337]
≤ 0.1 | ≤ 0.1 | C[C@@H](CC(F)(F)F)Nc1ncc2c(-c3cnn([C@@H]4CCOC4)c3)cc([C@H]3CC[C@H](O)CC3)n2n1 [Compound 289]
0.1 to 1 | ≤ 0.1 | CCCCC[C@H](C)Nc1ncc2c(C3CCNCC3)cc([C@H]3CC[C@H](O)CC3)n2n1 [Compound 116, (1S,4r)-4-(2-((S)-heptan-2-ylamino)-5-(piperidin-4-yl)pyrrolo[2,1-f][1,2,4]triazin-7-yl)cyclohexanol hydrochloride]
0.1 to 1 | ≤ 0.1 | COC[C@H](C)Nc1ncc2c(-c3ccc(CN4CCOCC4)cc3)cc([C@H]3CC[C@H](NC(C)=O)CC3)n2n1 [Compound 300, N-((trans)-4-(2-(((S)-1-methoxypropan-2-yl)amino)-5-(4-(morpholinomethyl)phenyl)pyrrolo[2,1-f][1,2,4]triazin-7-yl)cyclohexyl)acetamide]
0.1 to 1 | ≤ 0.1 | COC[C@H](C)Nc1ncc2c(-c3cnn(C4CCS(=O)(=O)CC4)c3)cc([C@H]3CC[C@H](O)CC3)n2n1 [Compound 323]
≤ 0.1 | ≤ 0.1 | Cc1nnc(Cn2cc(-c3cc([C@H]4CC[C@H](O)CC4)n4nc(N[C@@H](C)COC(F)F)ncc34)cn2)o1 [Compound 312]
≤ 0.1 | ≤ 0.1 | COC[C@H](C)Nc1ncc2c(-c3cnn(Cc4nnc(C)o4)c3)cc([C@H]3CC[C@H](O)CC3)n2n1 [Compound 277]
0.1 to 1 | ≤ 0.1 | COC[C@H](C)Nc1ncc2c(-c3cnn(C[C@H]4CCC(=O)N4)c3)cc([C@H]3CC[C@H](O)CC3)n2n1 [Compound 324]
≤ 0.1 | ≤ 0.1 | C[C@@H](CC(F)(F)F)Nc1ncc2c(-c3ccc(S(C)(=O)=O)nc3)cc([C@H]3CC[C@H](O)CC3)n2n1 [Compound 297]
≤ 0.1 | ≤ 0.1 | COC[C@H](C)Nc1ncc2c(-c3cnn(C4CN(C(C)=O)C4)c3)cc([C@H]3CC[C@H](O)CC3)n2n1 [Compound 286]
1 to 10 | ≤ 0.1 | CNC(=O)c1cc(-c2cc([C@H]3CC[C@H](O)CC3)n3nc(N[C@@H](C)COC)ncc23)cc(C)n1 [Compound 335]
≤ 0.1 | ≤ 0.1 | Cc1ccc(-c2cc([C@H]3CC[C@H](O)CC3)n3nc(N[C@@H](C)COC(F)F)ncc23)cn1 [Compound 321]
1 to 10 | 0.1 to 1 | CCCCC[C@H](C)Nc1ncc2c(N3CCC(C(=O)O)CC3)cc([C@H]3CC[C@H](O)CC3)n2n1 [Compound 117]

IC50 [1] [µM] | IC50 [2] [µM] | Structure (SMILES)
0.1 to 1 | ≤ 0.1 | COC[C@H](C)Nc1ncc2c(-c3cnn(CCS(C)(=O)=O)c3)cc([C@H]3CC[C@H](O)CC3)n2n1 [Compound 280]
0.1 to 1 | ≤ 0.1 | COC[C@H](C)Nc1ncc2c(-c3cnn(C(C)(C)C(=O)N4CCS(=O)(=O)CC4)c3)cc([C@H]3CC[C@H](O)CC3)n2n1 [Compound 331, 1-(1,1-dioxidothiomorpholino)-2-(4-(7-((trans)-4-hydroxycyclohexyl)-2-(((S)-1-methoxypropan-2-yl)amino)pyrrolo[2,1-f][1,2,4]triazin-5-yl)-1H-pyrazol-1-yl)-2-methylpropan-1-one]
1 to 10 | ≤ 0.1 | COC[C@H](C)Nc1ncc2c(-c3cnn(C(C)(C)C(=O)N4CC5(COC5)C4)c3)cc([C@H]3CC[C@H](O)CC3)n2n1 [Compound 326]
≤ 0.1 | ≤ 0.1 | CNC(=NC#N)N[C@H]1CC[C@H](c2cc(-c3ccc(CN4CCOCC4)cc3)c3cnc(N[C@@H](C)COC)nn32)CC1 [Compound 307]
≤ 0.1 | ≤ 0.1 | COCCn1cc(-c2cc([C@H]3CC[C@H](O)CC3)n3nc(N[C@@H](C)COC(F)F)ncc23)cn1 [Compound 274]
0.1 to 1 | ≤ 0.1 | C[C@@H](CC(F)(F)F)Nc1ncc2c(-c3cncc(C(=O)N4CCOCC4)c3)cc([C@H]3CC[C@H](O)CC3)n2n1 [Compound 311]
1 to 10 | ≤ 0.1 | COC[C@H](C)Nc1ncc2c(-c3cnn(C(C)(C)C(=O)C4C[C@H]5COC[C@H]5C4)c3)cc([C@H]3CC[C@H](O)CC3)n2n1 (stereo partly drawn) [Compound 319]
1 to 10 | ≤ 0.1 | COC[C@H](C)Nc1ncc2c(-c3cnn(C(C)(C)C(=O)N4CCC4)c3)cc([C@H]3CC[C@H](O)CC3)n2n1 [Compound 283]
0.1 to 1 | ≤ 0.1 | C[C@@H](CC(F)(F)F)Nc1ncc2c(-c3cn[nH]c3)cc([C@H]3CC[C@H](O)CC3)n2n1 [Compound 276]
≤ 0.1 | ≤ 0.1 | C[C@@H](CC(F)(F)F)Nc1ncc2c(-c3cnn(CCS(C)(=O)=O)c3)cc([C@H]3CC[C@H](O)CC3)n2n1 [Compound 288]
0.1 to 1 | ≤ 0.1 | CNS(=O)(=O)c1cncc(-c2cc([C@H]3CC[C@H](O)CC3)n3nc(N[C@@H](C)CC(F)(F)F)ncc23)c1 [Compound 278]
0.1 to 1 | ≤ 0.1 | COC[C@H](C)Nc1ncc2c(-c3cnn(C4CC(C(=O)OC)C4)c3)cc([C@H]3CC[C@H](O)CC3)n2n1 (stereo partly drawn) [Compound 330]
1 to 10 | ≤ 0.1 | C[C@@H](CC(F)(F)F)Nc1ncc2c(-c3cncc(C(=O)O)c3)cc([C@H]3CC[C@H](O)CC3)n2n1 [Compound 298]
0.1 to 1 | ≤ 0.1 | CCCCC[C@H](C)Nc1ncc2c(N3CCNCC3)cc([C@H]3CC[C@H](O)CC3)n2n1 [Compound 114]
1 to 10 | ≤ 0.1 | COC[C@H](C)Nc1ncc2c(-c3cnn(C(C)(C)C(=O)N4C[C@H](C)O[C@@H](C)C4)c3)cc([C@H]3CC[C@H](O)CC3)n2n1 [Compound 328]
0.1 to 1 | ≤ 0.1 | Cc1cc(-c2cc([C@H]3CC[C@H](O)CC3)n3nc(N[C@@H](C)C(F)F)ncc23)ccn1 [Compound 309]
0.1 to 1 | ≤ 0.1 | COC[C@H](C)Nc1ncc2c(-c3cnn(C4CN(CC(F)(F)F)C4)c3)cc([C@H]3CC[C@H](O)CC3)n2n1 [Compound 302]
0.1 to 1 | ≤ 0.1 | COC[C@H](C)Nc1ncc2c(-c3cnn(CC4CNC(=O)C4)c3)cc([C@H]3CC[C@H](O)CC3)n2n1 (stereo partly drawn) [Compound 303]
